Where two headings read alike, the source gives them in different places.
How the values were obtained:
Experiment in all cases: PDSP off-target radioligand binding assay
[1] = molecular target: T1, D1 (Homo sapiens, UniProt P21728)
T1 construct: NIMH PDSP
Procedure: (§1) Table S1. Off binding data of CW24.
(§2) The off-target binding assays were performed at PDSP with their standard protocol (https://pdspdb.unc.edu/pdspWeb/content/UNC-CH%20Protocol%20Book.pdf). In radioligand binding assays, CW24 was tested at a single concentration (10 µM) and in quadruplicate in 96-well plates. The binding assays were carried out in a final of volume of 125 µl per well in appropriate binding buffers. The hot ligand concentration is usually at a concentration close to the Kd (unless otherwise indicated). Total binding and nonspecific binding are determined in the absence and presence of 10 µM of the appropriate reference compound, respectively. In brief, plates are usually incubated at room temperature and in the dark for 90 mins. Reactions are stopped by vacuum filtration onto 0.3% polyethyleneimine (PEI) soaked 96-well filter mats using a 96-well Filtermate harvester, followed by three washes with cold wash buffers (for details, see Tables 2 to 24). Scintillation cocktail is then melted onto the microwave-dried filters on a hot plate and radioactivity is counted in a Microbeta counter.
(§3) Receptor % Inhibition 1 % Inhibition 2 % Inhibition 3 % Inhibition 4 Mean±SD %

[2] = molecular target: T2, 5-HT6 (Homo sapiens, UniProt P50406)
T2 construct: NIMH PDSP
Procedure: as §1, §2, §3

[3] = molecular target: H3 (Homo sapiens, UniProt Q9Y5N1)
Procedure: as §1, §2, §3

[4] = molecular target: H4 (Homo sapiens, UniProt Q9H3N8)
Procedure: as §1, §2, §3

[5] = test system: Sigma 1; conditions: 10 µM
Procedure: as §1, §2, §3

[6] = molecular target: H1 (Homo sapiens, UniProt P35367)
Procedure: as §1, §2, §3

[7] = molecular target: T3, 5-HT5A (Homo sapiens, UniProt P47898)
T3 construct: NIMH PDSP
Procedure: as §1, §2, §3

[8] = molecular target: T4, M2 (Homo sapiens, UniProt P08172)
T4 sequence (P08172 1-466): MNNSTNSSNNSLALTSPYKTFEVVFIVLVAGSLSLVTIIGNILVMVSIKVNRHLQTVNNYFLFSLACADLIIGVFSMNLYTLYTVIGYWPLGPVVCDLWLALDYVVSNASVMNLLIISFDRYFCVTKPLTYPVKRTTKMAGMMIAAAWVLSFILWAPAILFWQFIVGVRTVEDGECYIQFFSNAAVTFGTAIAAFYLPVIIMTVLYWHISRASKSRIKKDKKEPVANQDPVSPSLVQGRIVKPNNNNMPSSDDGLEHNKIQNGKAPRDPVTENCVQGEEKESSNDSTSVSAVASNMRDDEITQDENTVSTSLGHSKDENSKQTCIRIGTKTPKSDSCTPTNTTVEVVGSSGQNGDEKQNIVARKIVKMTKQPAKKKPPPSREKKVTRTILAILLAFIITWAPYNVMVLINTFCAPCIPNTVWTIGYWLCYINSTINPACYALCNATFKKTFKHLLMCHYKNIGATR
Procedure: as §1, §2, §3

[9] = molecular target: T5, 5-HT2C (Homo sapiens, UniProt P28335)
T5 construct: NIMH PDSP
T5 sequence (P28335 33-458): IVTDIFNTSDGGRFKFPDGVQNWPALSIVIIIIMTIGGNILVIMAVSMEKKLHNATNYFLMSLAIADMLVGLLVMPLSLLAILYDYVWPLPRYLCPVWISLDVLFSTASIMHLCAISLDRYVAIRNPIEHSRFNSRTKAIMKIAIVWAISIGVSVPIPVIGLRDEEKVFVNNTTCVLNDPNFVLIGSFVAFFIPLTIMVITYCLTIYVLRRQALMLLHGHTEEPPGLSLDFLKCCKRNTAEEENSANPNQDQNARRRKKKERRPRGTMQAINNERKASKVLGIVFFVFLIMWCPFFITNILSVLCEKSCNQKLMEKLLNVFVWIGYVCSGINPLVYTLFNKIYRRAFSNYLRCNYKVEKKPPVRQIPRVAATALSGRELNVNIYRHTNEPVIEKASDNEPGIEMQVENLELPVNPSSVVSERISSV
Procedure: as §1, §2, §3

[10] = molecular target: T6, Alpha1A (Homo sapiens, UniProt P35348)
T6 construct: NIMH PDSP
T6 sequence (P35348 1-466): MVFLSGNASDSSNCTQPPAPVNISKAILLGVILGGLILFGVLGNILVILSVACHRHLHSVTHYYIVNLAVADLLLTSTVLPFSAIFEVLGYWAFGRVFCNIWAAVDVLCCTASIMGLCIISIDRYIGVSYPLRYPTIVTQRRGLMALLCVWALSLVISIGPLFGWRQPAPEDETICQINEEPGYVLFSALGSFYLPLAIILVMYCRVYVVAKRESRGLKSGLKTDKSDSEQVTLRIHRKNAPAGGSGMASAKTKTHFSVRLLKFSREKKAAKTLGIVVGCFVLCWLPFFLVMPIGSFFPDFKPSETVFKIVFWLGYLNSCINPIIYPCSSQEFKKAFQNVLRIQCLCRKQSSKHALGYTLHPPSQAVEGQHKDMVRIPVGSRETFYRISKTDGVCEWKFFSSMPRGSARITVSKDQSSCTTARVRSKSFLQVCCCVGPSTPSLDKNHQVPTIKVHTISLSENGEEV
Procedure: as §1, §2, §3

[11] = quadruplicate, read-out: Mean±SD % inhibition
[12] = replicate 1, read-out: % Inhibition 1
[13] = replicate 2, read-out: % Inhibition 2
[14] = replicate 3, read-out: % Inhibition 3
[15] = replicate 4, read-out: % Inhibition 4

T1 sequence (P21728 whole entry): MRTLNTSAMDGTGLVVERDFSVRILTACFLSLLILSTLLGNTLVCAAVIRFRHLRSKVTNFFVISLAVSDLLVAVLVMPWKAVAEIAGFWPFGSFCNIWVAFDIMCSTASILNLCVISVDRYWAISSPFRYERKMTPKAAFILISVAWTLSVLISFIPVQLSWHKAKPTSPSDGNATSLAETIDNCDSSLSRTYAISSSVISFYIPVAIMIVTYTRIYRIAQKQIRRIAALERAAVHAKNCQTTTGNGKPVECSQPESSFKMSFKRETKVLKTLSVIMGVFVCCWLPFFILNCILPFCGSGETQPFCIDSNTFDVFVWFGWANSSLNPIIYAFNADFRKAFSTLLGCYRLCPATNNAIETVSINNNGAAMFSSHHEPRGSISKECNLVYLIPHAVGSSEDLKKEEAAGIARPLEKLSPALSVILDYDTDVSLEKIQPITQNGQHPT
Chain of H4 (Q9H3N8 whole entry): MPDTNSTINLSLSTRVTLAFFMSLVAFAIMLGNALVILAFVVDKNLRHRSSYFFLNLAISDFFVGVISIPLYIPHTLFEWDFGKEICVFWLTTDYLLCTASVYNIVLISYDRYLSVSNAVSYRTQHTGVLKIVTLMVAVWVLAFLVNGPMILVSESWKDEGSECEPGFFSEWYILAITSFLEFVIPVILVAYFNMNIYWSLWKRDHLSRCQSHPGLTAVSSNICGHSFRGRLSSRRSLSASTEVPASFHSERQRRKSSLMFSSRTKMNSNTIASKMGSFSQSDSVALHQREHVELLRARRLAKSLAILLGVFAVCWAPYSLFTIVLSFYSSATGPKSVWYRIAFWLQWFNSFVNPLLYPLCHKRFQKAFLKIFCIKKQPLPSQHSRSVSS
Chain of H1 (P35367 whole entry): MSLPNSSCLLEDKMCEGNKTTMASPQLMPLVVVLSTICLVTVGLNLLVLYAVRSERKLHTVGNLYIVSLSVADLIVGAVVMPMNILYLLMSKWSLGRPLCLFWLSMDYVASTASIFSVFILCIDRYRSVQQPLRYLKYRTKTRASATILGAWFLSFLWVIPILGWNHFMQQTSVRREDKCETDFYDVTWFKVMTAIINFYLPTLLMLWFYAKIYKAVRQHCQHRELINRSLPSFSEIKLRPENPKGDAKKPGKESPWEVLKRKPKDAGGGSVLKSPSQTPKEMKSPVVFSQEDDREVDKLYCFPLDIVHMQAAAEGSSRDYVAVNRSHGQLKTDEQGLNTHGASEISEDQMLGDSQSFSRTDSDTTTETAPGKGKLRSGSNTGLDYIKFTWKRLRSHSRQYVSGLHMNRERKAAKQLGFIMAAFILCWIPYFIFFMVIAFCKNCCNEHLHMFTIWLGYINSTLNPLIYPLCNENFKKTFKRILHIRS
T2 sequence (P50406 whole entry, species assumed): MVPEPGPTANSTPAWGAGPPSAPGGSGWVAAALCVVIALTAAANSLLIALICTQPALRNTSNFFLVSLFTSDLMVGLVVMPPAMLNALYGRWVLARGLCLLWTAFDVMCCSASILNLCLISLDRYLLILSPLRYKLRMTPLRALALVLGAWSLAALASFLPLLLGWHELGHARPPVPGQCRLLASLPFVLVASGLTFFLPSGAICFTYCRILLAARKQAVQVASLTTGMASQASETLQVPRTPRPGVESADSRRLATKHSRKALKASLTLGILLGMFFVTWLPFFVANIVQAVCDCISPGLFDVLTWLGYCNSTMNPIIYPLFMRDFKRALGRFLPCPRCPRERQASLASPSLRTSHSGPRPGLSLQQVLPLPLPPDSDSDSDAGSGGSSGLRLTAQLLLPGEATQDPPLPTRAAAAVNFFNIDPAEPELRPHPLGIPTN
T3 sequence (P47898 whole entry, species assumed): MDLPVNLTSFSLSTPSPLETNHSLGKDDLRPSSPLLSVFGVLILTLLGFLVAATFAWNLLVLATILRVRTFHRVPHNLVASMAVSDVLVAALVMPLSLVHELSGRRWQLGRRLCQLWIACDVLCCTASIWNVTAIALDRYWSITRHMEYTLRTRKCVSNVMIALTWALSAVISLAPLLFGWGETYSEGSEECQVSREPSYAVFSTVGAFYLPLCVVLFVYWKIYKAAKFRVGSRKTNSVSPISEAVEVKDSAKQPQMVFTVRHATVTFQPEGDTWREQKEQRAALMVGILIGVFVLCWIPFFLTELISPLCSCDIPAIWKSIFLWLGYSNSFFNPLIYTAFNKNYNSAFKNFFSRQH
Chain of H3 (Q9Y5N1 whole entry): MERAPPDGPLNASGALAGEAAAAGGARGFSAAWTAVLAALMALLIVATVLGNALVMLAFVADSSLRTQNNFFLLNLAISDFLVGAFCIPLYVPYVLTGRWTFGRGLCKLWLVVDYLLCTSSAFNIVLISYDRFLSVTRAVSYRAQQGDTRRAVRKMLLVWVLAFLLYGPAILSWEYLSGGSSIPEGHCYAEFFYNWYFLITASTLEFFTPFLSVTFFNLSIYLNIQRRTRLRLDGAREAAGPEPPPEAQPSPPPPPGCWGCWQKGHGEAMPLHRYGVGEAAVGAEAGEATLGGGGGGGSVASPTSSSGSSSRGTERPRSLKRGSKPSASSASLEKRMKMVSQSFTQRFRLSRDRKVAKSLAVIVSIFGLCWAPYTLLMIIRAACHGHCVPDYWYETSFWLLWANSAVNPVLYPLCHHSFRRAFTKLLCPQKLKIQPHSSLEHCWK

## COc1ccnc(N2CCC3(CCCN(Cc4cn(C)c5ccccc45)C3=O)CC2)n1 [CW24]
[1]; [11]
  inhibition at 10 µM: 17.9 ± 12.8%
[1]; [12]
  inhibition at 10 µM: 22.7%
[1]; [13]
  inhibition at 10 µM: -0.84%
[1]; [14]
  inhibition at 10 µM: 21.9%
[1]; [15]
  inhibition at 10 µM: 28%
[2]; [11]
  inhibition at 10 µM: 5.73 ± 17.3%
[2]; [12]
  inhibition at 10 µM: 17.7%
[2]; [13]
  inhibition at 10 µM: 23.2%
[2]; [14]
  inhibition at 10 µM: -12.3%
[2]; [15]
  inhibition at 10 µM: -5.73%
[3]; [11]
  inhibition at 10 µM: -9.38 ± 11.9%
[3]; [12]
  inhibition at 10 µM: -25%
[3]; [13]
  inhibition at 10 µM: -12.5%
[3]; [14]
  inhibition at 10 µM: 0%
[3]; [15]
  inhibition at 10 µM: 0%
[4]; [11]
  inhibition at 10 µM: 3.44 ± 8.21%
[4]; [12]
  inhibition at 10 µM: -8.25%
[4]; [13]
  inhibition at 10 µM: 9.91%
[4]; [14]
  inhibition at 10 µM: 8.32%
[4]; [15]
  inhibition at 10 µM: 3.76%
[5]; quadruplicate
  Mean±SD % inhibition: 12.33 ± 12.50%
[5]; replicate 1
  % Inhibition 1: 8.39%
[5]; replicate 2
  % Inhibition 2: 1.56%
[5]; replicate 3
  % Inhibition 3: 8.99%
[5]; replicate 4
  % Inhibition 4: 30.38%
[6]; [11]
  inhibition at 10 µM: 10.5 ± 12.7%
[6]; [12]
  inhibition at 10 µM: 13%
[6]; [13]
  inhibition at 10 µM: -0.52%
[6]; [14]
  inhibition at 10 µM: 1.94%
[6]; [15]
  inhibition at 10 µM: 27.5%
[7]; [11]
  inhibition at 10 µM: -4.44 ± 7.73%
[7]; [12]
  inhibition at 10 µM: 5.59%
[7]; [13]
  inhibition at 10 µM: -6.33%
[7]; [14]
  inhibition at 10 µM: -13.1%
[7]; [15]
  inhibition at 10 µM: -3.89%
[8]; [11]
  inhibition at 10 µM: -0.08 ± 16.7%
[8]; [12]
  inhibition at 10 µM: -1.12%
[8]; [13]
  inhibition at 10 µM: -4.61%
[8]; [14]
  inhibition at 10 µM: -17.4%
[8]; [15]
  inhibition at 10 µM: 22.8%
[9]; [11]
  inhibition at 10 µM: 14.3 ± 40.6%
[9]; [12]
  inhibition at 10 µM: 28.8%
[9]; [13]
  inhibition at 10 µM: -38.5%
[9]; [14]
  inhibition at 10 µM: 8.5%
[9]; [15]
  inhibition at 10 µM: 58.2%
[10]; [11]
  inhibition at 10 µM: -7.99 ± 16.7%
[10]; [12]
  inhibition at 10 µM: 17%
[10]; [13]
  inhibition at 10 µM: -16.2%
[10]; [14]
  inhibition at 10 µM: -17.6%
[10]; [15]
  inhibition at 10 µM: -15.1%

Reference: publication PMC7179119, “A New Positron Emission Tomography Probe for Orexin Receptors Neuroimaging” (Molecules, 2020)
